The structures appear in SMILES notation. Like-named read-outs stand apart in the source and are kept apart here.

The subject of data set [1] is premalignant lesions in mouse mammary gland organ culture. Briefly: Mammary gland organ culture model. The class given is cell-based. An excerpt: Test compounds identified by the above methods can be tested for antineoplastic activity by their ability to inhibit the incidence of pre-neoplastic lesions in a mammary gland organ culture system. This mouse mammary gland organ culture technique has been successfully used by other investigators to study the effects of known antineoplastic agents such as certain NSAIDs, retinoids, tamoxifen, selenium, and certain natural products, and is useful for validation of the screening method of the present invention.
For example, female BALB/c mice can be treated with a combination of estradiol and progesterone daily, in order to prime the glands to be responsive to hormones in vitro. The animals are sacrificed, and thoracic mammary glands are excised aseptically and incubated for ten days in growth media supplemented with insulin, prolactin, hydrocortisone, and aldosterone. DMBA (7,12 dimethylbenz(a)anthracene) is added to medium to induce the formation of premalignant lesions. Fully developed glands are then deprived of prolactin, hydrocortisone, and aldosterone, resulting in the regression of the glands but not the pre-malignant lesions.
The test compound is dissolved in DMSO and added to the culture media for the duration of the culture period. At the end of the culture period, the glands are fixed in 10% formalin, stained with alum carmine, and mounted on glass slides. The incidence of forming mammary lesions is the ratio of the glands with mammary lesions to […]. The incidence of mammary lesions in test compound treated glands is compared with that of the untreated glands.
The extent of the area occupied by the mammary lesions can be quantitated by projecting an image of the gland onto a digitation pad. The area covered by the gland is traced on the pad and considered as 100% of the area. The space covered by each of the non-regressed structures is also outlined on the digitization pad and quantitated by the computer.
Mammary gland organ culture experiment were performed as previously described (Mehta and Moon, Cancer Research, 46:5832-5835, 1986). […]

The subject of data set [2] is protein kinase G (PKG) activity in HCT116 colon cancer cells. Briefly: PKG activity assay of lysates of drug-treated HCT116 cells. The class given is cell-based. An excerpt:
To test the effect of cGMP-specific PDE inhibition on neoplasia containing the β-catenin mutation, HCT116 colon cancer cells were employed. HCT116 is known to contain the β-catenin mutation, but is known not to contain the APC mutation.
The same procedure is used to grow the HCT116 cells as is used in the SW480 procedure described above. In this experiment, only exisulind and controls were used.

Data set [3] addresses T1, cGMP binding sites of the GST-cGB-PDE5 Protein (Homo sapiens, UniProt O76074).
T1 construct: made in house; host or cells: E. coli BL21 (DE3)
In words: cGMP binding assay with GST-cGB-PDE5 fusion protein. To be noted: 3H-cGMP 2 μM.

For data set [4], the system named is β-catenin in SW480 cells. In words: Western blot of β-catenin in SW480 cells. The class given is cell-based, human. As to conditions: SW480, 200, 400 or 600 μM, 48 hours. The protocol: SW480 cells treated with exisulind as described previously are harvested from the microfuge tubes by rinsing once with ice-cold PBS. The cells are lysed by modified RIPA buffer for 15 minutes with agitation. The cell lysate is spun down in a cold room. The supernatants are transferred to fresh microcentrifuge tubes immediately after spinning. BioRad DC Protein Assay (Temecula, Calif.) is performed to determine the protein concentrations in samples. The samples are normalized for protein concentration, as described above.
50 μg of each sample is loaded to 10% SDS gel. SDS-PAGE is performed, and the proteins then are transferred to a nitrocellulose membrane. The blotted nitrocellulose membrane are blocked in freshly prepared TBST containing 5% nonfat dry milk for one hour at room temperature with constant agitation.
SW480 cells were treated with exisulind or vehicle (0.1% DMSO) for 48 hours. 50 μg supernatant of each cell lysates were loaded to 10% SDS-gel and blotted to nitrocellulose membrane, and the membrane was probed with rabbit-anti-β-catenin and rabbit anti-PKG antibodies.
This observation was made by culturing SW480 cells with either 200, 400 or 600 μM exisulind or vehicle (0.1% DMSO). The cells are harvested 48 hours post treatment and processed for immunoblotting. Immuno-reactive protein can be detected by Western blot. […]

In data set [5] the target is T2, cyclooxygenase (Type 1), COX-I (Ovis aries, UniProt P05979).
T2 sequence (P05979 25-600): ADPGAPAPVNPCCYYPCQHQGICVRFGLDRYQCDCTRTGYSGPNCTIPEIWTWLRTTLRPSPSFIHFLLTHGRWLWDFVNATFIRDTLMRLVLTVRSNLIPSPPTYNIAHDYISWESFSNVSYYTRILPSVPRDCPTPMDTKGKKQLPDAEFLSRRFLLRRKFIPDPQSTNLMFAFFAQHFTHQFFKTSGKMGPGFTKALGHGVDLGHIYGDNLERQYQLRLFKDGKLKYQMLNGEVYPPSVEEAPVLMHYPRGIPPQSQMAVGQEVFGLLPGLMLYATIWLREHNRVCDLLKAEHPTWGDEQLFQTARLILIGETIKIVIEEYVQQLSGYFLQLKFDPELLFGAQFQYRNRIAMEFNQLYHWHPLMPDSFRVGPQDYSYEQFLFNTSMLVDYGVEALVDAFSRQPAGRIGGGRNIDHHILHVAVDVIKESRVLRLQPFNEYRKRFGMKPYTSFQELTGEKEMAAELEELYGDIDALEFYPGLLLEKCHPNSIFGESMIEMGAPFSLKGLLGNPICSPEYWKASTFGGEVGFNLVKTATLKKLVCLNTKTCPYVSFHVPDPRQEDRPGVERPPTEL
Briefly: COX inhibition assay, purified cyclooxygenase.

Data set [6] deals with cGMP PDE from human colon HT-29 cultured tumor cells. Briefly: cGMP PDE inhibition assay. The class given is biochemical.
Data set [7] concerns patients. In words: Safety evaluation in exisulind clinical trials. The class given is in vivo. The protocol: In these exisulind trials and several others involving the drug in other indications, safety was evaluated by monitoring adverse events (AEs), clinical laboratory tests (hematology, serum chemistry, and urinalysis), vital signs (blood pressure, pulse rate, respiratory rate, temperature, and weight), physical examination, and upper endoscopy.

The test system of data set [8] is HT-29 cells. In words: Growth inhibition, SRB assay, HT-29. The class given is cell-based, human.
Data set [9] has as its system novel Peak B from HTB-26 breast cancer cell line. Briefly: cGMP PDE activity of peak B from HTB-26. The class given is biochemical. As to conditions: peak B from HTB-26, 0.25 μM cGMP. The protocol:
(§1) The novel Peak B was also isolated from two other neoplastic cell lines, a breast cancer cell line, HTB-26 and a prostate cancer cell line, LnCAP by a procedure similar to the one above used to isolate it from SW480. The protocol was modified in several respects. To provide even greater reproducibility to allow comparison of different cell lines, a Pharmacia AKTA FPLC was used to control sample loading and elution on an 18 mL DEAE TrisAcryl M column. SW840 was run by this same procedure multiple times to provide a reference of peak B. 200-400 million cells of SW480 were used for the profiles. 70 million cells of LnCAP were used for a profile (see FIGS. 22 and 23), and in a separate experiment 32 million cells of HTB-26 were used for a profile (see FIGS. 20 and 21). After re-suspending cells in homogenization buffer, samples were manually homogenized. FPLC buffer A was 8 mM TRIS-acetate, 5 mM Mg acetate, 0.1 mM EDTA, pH 7.5 and buffer B was 8 mM TRIS-acetate, 5 mM Mg acetate, 0.1 mM EDTA, 1 M Na acetate, pH 7.5. Supernatants were loaded onto the column at 1 mL per minute, followed by a wash with 60 mL buffer A at 1 mL per minute. A gradient was run from 0-15% buffer B in 60 mL, 15-50% buffer B in 60 mL, and 50-100% buffer B in 16 mL. During the gradient 1.5 mL fractions were collected.

Data set [10] relates to novel Peak B from LnCAP prostate cancer cell line. In words: cGMP PDE activity of peak B from LnCAP. In kind it is biochemical. As to conditions: 0.25 μM cGMP. The protocol: as §1
Data set [11] has as its target T3, novel cGMP-specific PDE (Peak B) from SW480 cells (Homo sapiens, UniProt O00408).
T3 construct: IC50 Peak B (μM)
In words: cGMP hydrolysis inhibition, novel PDE peak B (Section IA) from SW480. The class given is biochemical. To be noted: peak B from SW480, FPLC, 0.25 μM cGMP.

The test system of data set [12] is SW-480 colon adenocarcinoma cells. In words: Apoptosis fold induction / DNA fragmentation protocol.
The test system is the same in data set [13].

Consider `CC1=C(CC(=O)O)c2cc(F)ccc2/C1=C\c1ccc(S(C)(=O)=O)cc1` [Exisulind, 5-fluoro-2-methyl-1-(p-methylsulfonylbenzylidene)-3-indenylacetic acid], for which the “inhibition of formation of premalignant lesions” value in [1] was “effectively inhibit the formation of premalignant lesions”. Besides, the “PKG activity relative to control” value in [2] is on record as “PKG activation occurred”. The “competition with cGMP in binding of GST-cGB-PDE5” value in data set [3] was “None of the PDE5 inhibitors showed any competition with cGMP”. In addition, the “reduction of expression of β-catenin” value in data set [4] was 50%. Further, the IC50 in [5] is > 10 mM. The “cGMP PDE % Inhibition at 10 μM” value in data set [6] amounted to 39%. In addition, in data set [7] (human, in vivo), the dose-limiting adverse events entry is “elevations in liver function tests (LFTs)” and the “safety issues in clinical trials” value is “No outstanding safety issues have been demonstrated”. Also, the “apoptosis rates in paired biopsies” value in [7] (polyp and normal colonic tissues in APC patients) was “increased apoptosis rates in polyp, but not normal colonic tissues”.
On to `O=C([O-])C1CCN(c2nc(NCc3ccc4c(c3)OCO4)c3cc(Cl)ccc3n2)CC1.[Na+]` [Compound E4021], for which the “competition with cGMP in binding of GST-cGB-PDE5” value in data set [3] was “None of the PDE5 inhibitors showed any competition with cGMP”. Further, the “Growth % Inhibition at 100 μM” value in data set [8] is recorded as <50%. Besides, the “sensitivity of peak B cGMP PDE activity” value in [9], in data set [10] and in data set [11] was “resistant to 100 nM E4021” each time.
Consider `CCCCCC[C@@H]([C@@H](C)O)n1cnc2c(N)ncnc21` (racemic) [EHNA], for which the “Fold induction at 100 μM (apoptosis)” value in data set [12] is on record as <2.0 fold.
`CCN(CC)CCSC12CC(=O)OC1(C)/C(=C/c1ccc(S(C)(=O)=O)cc1)c1ccc(F)cc12` (racemic) [A, rac-threo-(E)-1-(N,N′-diethylaminoethanethio)-1-(butan-1′,4′-olido)-[3′,4′:1,2]-6-fluoro-2-methyl-3-(p-methylsulfonylbenzylidene)-indan]: the “Growth % Inhibition at 100 μM” value in data set [8] stood at 68%. The “COX % Inhibition at 100 μM” value in [5] (100 μM) is recorded as <25%. In addition, the “cGMP PDE % Inhibition at 10 μM” value in [6] is listed as <25%. In addition, the “Fold induction at 100 μM (apoptosis)” value in data set [13] was <2.0 fold.

These data come from patent US6500610B1, “Methods for identifying compounds for inhibiting of neoplastic lesions, and pharmaceutical compositions containing such compounds” (Cell Pathways, INC, priority 1997, dated 2002).
